Assays:
[1] = target: T1, Tyrosine-protein kinase receptor UFO (Homo sapiens, UniProt P30530); assay: Inhibition of human AXL measured after 150 mins by ATP-competitive HTRF based biochemical assay
T1 sequence (P30530 whole entry): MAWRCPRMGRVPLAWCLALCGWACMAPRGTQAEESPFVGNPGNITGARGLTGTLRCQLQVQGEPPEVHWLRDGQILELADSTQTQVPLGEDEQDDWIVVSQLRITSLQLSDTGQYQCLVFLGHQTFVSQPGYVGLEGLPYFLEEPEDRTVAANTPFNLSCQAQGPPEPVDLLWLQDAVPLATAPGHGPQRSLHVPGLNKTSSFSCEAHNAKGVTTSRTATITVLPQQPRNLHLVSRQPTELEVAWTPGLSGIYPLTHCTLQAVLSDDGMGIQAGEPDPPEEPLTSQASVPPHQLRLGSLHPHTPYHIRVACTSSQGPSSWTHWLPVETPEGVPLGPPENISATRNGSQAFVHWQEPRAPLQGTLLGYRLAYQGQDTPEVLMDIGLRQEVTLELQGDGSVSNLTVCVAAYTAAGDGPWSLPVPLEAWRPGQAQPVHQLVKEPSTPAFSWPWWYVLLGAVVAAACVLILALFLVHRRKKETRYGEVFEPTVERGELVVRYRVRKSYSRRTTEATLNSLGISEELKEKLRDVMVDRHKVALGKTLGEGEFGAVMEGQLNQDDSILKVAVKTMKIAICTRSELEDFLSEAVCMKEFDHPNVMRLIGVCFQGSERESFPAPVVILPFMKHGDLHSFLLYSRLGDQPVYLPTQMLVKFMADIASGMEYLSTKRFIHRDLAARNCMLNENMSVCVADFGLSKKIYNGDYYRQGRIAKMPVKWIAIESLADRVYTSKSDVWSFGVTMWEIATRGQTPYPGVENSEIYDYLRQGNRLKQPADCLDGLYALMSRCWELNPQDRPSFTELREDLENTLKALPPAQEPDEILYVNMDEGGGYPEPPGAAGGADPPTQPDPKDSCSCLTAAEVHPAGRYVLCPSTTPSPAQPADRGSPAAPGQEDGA

[2] = Metabolic stability in human hepatocytes assessed as intrinsic clearance measured per 10^6 cells; assay type: ADME, cell-based, Hepatocyte; conditions: read-out: CLH
[3] = target: T1, Tyrosine-protein kinase receptor UFO; assay: Inhibition of autophosphorylation AXL (unknown origin) expressed in HEK293 cells assessed as NanoLuc activity associated with phosphorylated proteins measured after 1 hr incubation by intracellular pAXL-ELISA; assay type: cell-based
[4] = Metabolic stability in rat hepatocytes assessed as intrinsic clearance measured per 10^6 cells; assay type: ADME, cell-based, Hepatocyte; conditions: read-out: CLH
[5] = target: T1, Tyrosine-protein kinase receptor UFO; assay: Binding affinity to AXL (unknown origin) expressed in HEK293 cells transfected with Nano-Luc fusion vector assessed as dissociation constant by measuring decrease in BRET signal preincubated for 1 hr followed by K-5 NanoBRET tracer addition incubated for 2 hrs; assay type: cell-based
[6] = AUCinf in Sprague-Dawley rat at 2 mg/kg, po measured up to 8 hrs by LC-MS/MS analysis; assay type: ADME, organism-based; conditions: in vivo
[7] = Efflux ratio in human Caco-2 cells; assay type: ADME, cell-based
[8] = Apparent permeability of compound from apical to basolateral side in human Caco-2 cells; assay type: ADME, cell-based; conditions: read-out: permeability
[9] = Clearance in Sprague-Dawley rat at 0.5 mg/kg, iv measured up to 24 hrs by LC-MS/MS analysis; assay type: ADME, organism-based; conditions: in vivo
[10] = target: hERG (KCNH2) (Homo sapiens, UniProt Q12809); assay: Inhibition of hERG at 10 uM by high throughput cell based patch clamp assay; assay type: toxicity
Sequence of hERG (KCNH2) (Q12809 whole entry): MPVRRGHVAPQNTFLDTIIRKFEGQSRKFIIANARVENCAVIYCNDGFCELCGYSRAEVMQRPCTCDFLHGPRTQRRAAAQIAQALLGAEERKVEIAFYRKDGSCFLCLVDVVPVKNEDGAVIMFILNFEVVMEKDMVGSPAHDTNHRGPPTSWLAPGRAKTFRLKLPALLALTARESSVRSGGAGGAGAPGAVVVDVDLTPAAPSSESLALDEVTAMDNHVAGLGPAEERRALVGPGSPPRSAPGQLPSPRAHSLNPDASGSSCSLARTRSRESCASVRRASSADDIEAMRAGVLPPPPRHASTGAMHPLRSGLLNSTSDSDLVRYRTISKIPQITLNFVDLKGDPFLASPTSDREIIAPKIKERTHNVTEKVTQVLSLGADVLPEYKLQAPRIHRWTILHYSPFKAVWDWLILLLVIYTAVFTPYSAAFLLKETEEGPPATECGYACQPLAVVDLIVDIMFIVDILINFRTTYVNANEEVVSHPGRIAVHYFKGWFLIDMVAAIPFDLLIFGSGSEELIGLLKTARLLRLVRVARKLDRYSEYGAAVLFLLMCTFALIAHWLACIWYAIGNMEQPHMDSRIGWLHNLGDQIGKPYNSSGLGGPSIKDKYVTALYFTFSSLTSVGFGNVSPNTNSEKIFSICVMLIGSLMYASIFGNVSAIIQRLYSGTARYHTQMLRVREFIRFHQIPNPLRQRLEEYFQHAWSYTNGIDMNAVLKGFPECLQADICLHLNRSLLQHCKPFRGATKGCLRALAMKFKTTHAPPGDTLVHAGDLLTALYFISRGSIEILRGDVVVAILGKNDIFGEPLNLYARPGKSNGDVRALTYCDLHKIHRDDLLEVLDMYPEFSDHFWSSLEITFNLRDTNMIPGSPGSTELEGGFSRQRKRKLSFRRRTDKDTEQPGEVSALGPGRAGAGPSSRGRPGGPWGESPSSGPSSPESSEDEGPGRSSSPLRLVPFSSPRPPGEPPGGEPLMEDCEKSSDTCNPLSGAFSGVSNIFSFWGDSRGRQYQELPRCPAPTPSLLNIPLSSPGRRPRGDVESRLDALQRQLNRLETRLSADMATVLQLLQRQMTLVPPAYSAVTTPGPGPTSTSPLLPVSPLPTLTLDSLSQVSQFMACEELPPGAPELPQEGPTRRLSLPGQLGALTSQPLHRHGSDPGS

| SMILES | IC50 [1] [nM] | hepatocyte CLint [2] [µL/min/1e6 cells] | IC50 [3] [nM] | hepatocyte CLint [4] [µL/min/1e6 cells] | Kd [5] [nM] | AUC(0-inf) [6] [ng·h/mL] | efflux ratio [7] | Papp A→B [8] [×10⁻⁶ cm/s] | clearance [9] [mL/min/kg] | inhibition at 10 µM [10] [%] |
| --- | --- | --- | --- | --- | --- | --- | --- | --- | --- | --- |
| COc1cccnc1-c1ccc(-c2n[nH]c3ncc(-c4ccc5c(c4)CC[C@@H](N4C6COCC4C6)CC5)cc23)cc1 | 2.4 | 13 | 120 | 16 |  |  |  |  |  |  |
| Cn1nccc1-c1ccc(-c2n[nH]c3ncc(-c4ccc5c(c4)CC[C@@H](N4C6COCC4C6)CC5)cc23)cc1 | 3.9 |  |  |  | 31 |  |  |  |  |  |
| CCc1cccnc1-c1ccc(-c2n[nH]c3ncc(-c4ccc5c(c4)CC[C@@H](N4C6COCC4C6)CC5)cc23)cc1 | 1.4 | 6.3 | 190 | 30 |  |  |  |  |  |  |
| c1cc(-c2n[nH]c3ncc(-c4ccc5c(c4)CCC(N4C6COCC4C6)CC5)cc23)ccn1 (racemic) | 20 | 8.7 |  | 13 | 38 | 130 |  |  |  |  |
| c1ccc(-c2ccc(-c3n[nH]c4ncc(-c5ccc6c(c5)CC[C@@H](N5C7COCC5C7)CC6)cc34)cc2)nc1 | 5 | < 2.7 | 1700 | < 2.7 | 75 | 2800 |  |  |  |  |
| c1cc2c(cc1-c1cnc3[nH]nc(-c4ccc5c(c4)OCCO5)c3c1)CCC(N1C3COCC1C3)CC2 (racemic) | 17 | 16 |  | 46 | 69 |  |  |  |  |  |
| CO[C@H]1C[C@@H](N[C@H]2CCc3ccc(-c4cnc5[nH]nc(-c6ccc(-c7ncccc7C)cc6)c5c4)cc3CC2)C1 | 3.4 | < 2.7 | 310 | 6.4 |  |  |  |  |  |  |
| O=C1CCCN1c1ccc(-c2n[nH]c3ncc(-c4ccc5c(c4)CC[C@@H](N4C6COCC4C6)CC5)cc23)cc1 | 60 |  |  |  | 89 |  |  |  |  |  |
| CP(C)(=O)c1ccc(-c2n[nH]c3ncc(-c4ccc5c(c4)CCC(N4C6COCC4C6)CC5)cc23)cc1 (racemic) |  |  |  |  | 170 |  |  |  |  |  |
| Cn1cc(-c2ccc(-c3n[nH]c4ncc(-c5ccc6c(c5)CCC(N5C7COCC5C7)CC6)cc34)cc2)cn1 (racemic) | 34 |  |  |  | 2200 |  |  |  |  |  |
| Cc1cccnc1-c1ccc(-c2n[nH]c3ncc(-c4ccc5c(c4)CC[C@@H](N4C[C@@H]6C[C@H]4CO6)CC5)cc23)cc1 | 1.8 | < 2.7 | 57 | 13 |  |  |  |  |  |  |
| O=C1OCCN1c1ccc(-c2n[nH]c3ncc(-c4ccc5c(c4)CC[C@@H](N4C6COCC4C6)CC5)cc23)cc1 | 15 | < 2.7 | 390 | 4.3 | 27 | 1500 | 3.3 | 8 | 8.17 | 44 |
| O=S1(=O)CCCN1c1ccc(-c2n[nH]c3ncc(-c4ccc5c(c4)CC[C@@H](N4C6COCC4C6)CC5)cc23)cc1 | 13 | < 2.7 |  | < 2.7 | 51 | 39 |  |  |  |  |
| CS(=O)(=O)c1ccc(-c2n[nH]c3ncc(-c4ccc5c(c4)CC[C@@H](N4C6COCC4C6)CC5)cc23)cc1 | 3.8 | 5.8 |  | 9.8 | 13 | 120 |  |  |  |  |
| Cc1cccnc1-c1ccc(-c2n[nH]c3ncc(-c4ccc5c(c4)CC[C@@](C)(N4CCC[C@H]4C)CC5)cc23)cc1 | 0.75 | < 2.7 | 13 | < 2.7 |  | 380 |  |  |  |  |
| FC(F)(F)c1cccnc1-c1ccc(-c2n[nH]c3ncc(-c4ccc5c(c4)CC[C@@H](N4C6COCC4C6)CC5)cc23)cc1 | 8.2 | < 2.7 | 730 | < 2.7 |  |  |  |  |  |  |
| N#Cc1cccnc1-c1ccc(-c2n[nH]c3ncc(-c4ccc5c(c4)CC[C@@H](N4C6COCC4C6)CC5)cc23)cc1 | 6 | < 2.7 | 220 | < 2.7 |  |  |  |  |  |  |
| Cn1nncc1-c1ccc(-c2n[nH]c3ncc(-c4ccc5c(c4)CC[C@@H](N4C6COCC4C6)CC5)cc23)cc1 | 8.9 |  |  |  | 91 |  |  |  |  |  |
| c1cc2c(cc1-c1cnc3[nH]nc(-c4ccc(N5C[C@H]6C[C@@H]5CO6)cc4)c3c1)CC[C@@H](N1C3COCC1C3)CC2 | 28 | 7.2 |  | 12 | 130 | 2900 | 1.2 | 6.7 | 38.3 |  |
| Cn1ncnc1-c1ccc(-c2n[nH]c3ncc(-c4ccc5c(c4)CC[C@@H](N4C6COCC4C6)CC5)cc23)cc1 | 2.7 | < 2.7 |  | 5 | 7.1 | 410 | 5.7 |  |  |  |
| c1cc2c(cc1-c1cnc3[nH]nc(-c4ccc(N5C[C@@H]6C[C@H]5CO6)cc4)c3c1)CC[C@@H](N1C3COCC1C3)CC2 | 46 |  |  |  | 140 |  |  |  |  |  |
| COCCOc1cccnc1-c1ccc(-c2n[nH]c3ncc(-c4ccc5c(c4)CC[C@@H](N4C6COCC4C6)CC5)cc23)cc1 | 1.3 | 3.2 | 33 | 16 |  |  |  |  |  |  |
| Cn1ccnc1-c1ccc(-c2n[nH]c3ncc(-c4ccc5c(c4)CC[C@@H](N4C6COCC4C6)CC5)cc23)cc1 | 0.63 | < 2.7 |  | 16 | 1.9 | 160 | 18 |  |  |  |
| c1cc2c(cc1-c1cnc3[nH]nc(-c4ccc(N5CC6(COC6)C5)cc4)c3c1)CC[C@@H](N1C3COCC1C3)CC2 | 27 |  |  |  | 120 |  |  |  |  |  |
| c1cncc(-c2ccc(-c3n[nH]c4ncc(-c5ccc6c(c5)CC[C@@H](N5C7COCC5C7)CC6)cc34)cc2)c1 | 19 |  |  |  | 410 |  |  |  |  |  |
| Cc1cccnc1-c1ccc(-c2n[nH]c3ncc(-c4ccc5c(c4)CC[C@@H](N[C@H]4CCCOC4)CC5)cc23)cc1 | 2.6 | 5.8 | 100 | 12 |  |  |  |  |  |  |
| c1cc2c(cc1-c1cnc3[nH]nc(-c4ccc(N5CCOCC5)cc4)c3c1)CC[C@@H](N1C3COCC1C3)CC2 | 66 |  |  |  | 190 |  |  |  |  |  |
| COCCOc1ccc(-c2n[nH]c3ncc(-c4ccc5c(c4)CC[C@@H](N4C6COCC4C6)CC5)cc23)cc1 | 12 | 14 |  | 9.1 | 66 | 4200 | 0.93 | 17 | 15 | 84 |
| CN(C)S(=O)(=O)c1ccc(-c2n[nH]c3ncc(-c4ccc5c(c4)CC[C@@H](N4C6COCC4C6)CC5)cc23)cc1 | 2.6 | 36 |  | 110 | 15 |  |  |  |  |  |
